Here are results for one compound from patent US10729659B2, “Nanogel-mediated drug delivery” (The Cleveland Clinic Foundation, priority 2012, dated 2020).

For series [1] the following is noted: cited from earlier work.
The test system of series [2] is MCF-7/Adr cells. In words: Cellular uptake of dox. Type of series: cell-based, human. The conditions noted are these: DAC 50 ng/mL 24 h, then dox 1 μg/mL; 15 min to 12 h. How it is done:
Drug resistant breast cancer cells were seeded in 24 well plates (1.2×10^6 cells/well). Post 48 h seeding, cells were pre-treated with DAC (50 ng/mL; 24 h); and then incubated with fixed concentration of dox (1 μg/mL) for indicated time points. Post drug incubation cell lysates in RIPA buffer was collected and lyophilized. Dox was extracted from lyophilized cell lysates using methanol as the solvent and analyzed by HPLC.

For series [3] the following is noted: cited from earlier work. The source holds these as a separate data set.
Series [4] relates to p21. In words: Western blotting of p21. Type of series: cell-based, human. The conditions noted are these: MCF-7/Adr. As for the experimental part:
(§1) Whole cell lysates, were made by lysing 1×10^6 treated or untreated cells, with RIPA buffer (Sigma-Aldrich, St. Louis, Mo.) containing 1× protease inhibitor cocktail (Calbiochem, Gibbstown, N.J.). Lysates were collected by centrifugation at 14,000 rpm for 15 min Protein concentration was determined by a bicinchoninic acid (BCA) assay kit (Pierce, Rockford, Ill.). 20-40 μg proteins of cell lysates were electrophoresed through 13.5% SD Spolyacrylamide gel or 4-15% linear pre-cast polyacrylamide gradient gel (Bio-Rad Laboratories, Hercules, Calif.) and transferred to polyvinylidene difluoride (PVDF) membranes (GE Healthcare Bio-sciences, corp., Piscataway, N.J.). The blots were probed for mouse monoclonal p21 (Cell Signaling Technology, Inc., Danvers, Mass.), mouse monoclonal DNMT1 (Abcam Inc., Cambridge, Mass.), and mouse monoclonal anti-actin (Sigma-Aldrich, St. Louis, Mo.). For detection of bound antibody, PVDF membrane was incubated with horse radish—tagged, goat anti-mouse antibody. After incubation membrane was washed with TBST, and stained with enhanced chemiluminescence (ECL) reagent or ECL plus reagent (GE Healthcare Bio-sciences, corp., Piscataway, N.J.) according to manufacturer protocol.

For series [5] the following is noted: rat model; cited from earlier work.
In series [6] the target is T1, DNMT1 (Homo sapiens, UniProt P26358).
T1 construct: Whole cell lysates were collected at the end of each time point and western blot was done for the expression of DNMT1; endogenous in cells; host or cells: MCF-7/Adr cells
T1 sequence (P26358 whole entry): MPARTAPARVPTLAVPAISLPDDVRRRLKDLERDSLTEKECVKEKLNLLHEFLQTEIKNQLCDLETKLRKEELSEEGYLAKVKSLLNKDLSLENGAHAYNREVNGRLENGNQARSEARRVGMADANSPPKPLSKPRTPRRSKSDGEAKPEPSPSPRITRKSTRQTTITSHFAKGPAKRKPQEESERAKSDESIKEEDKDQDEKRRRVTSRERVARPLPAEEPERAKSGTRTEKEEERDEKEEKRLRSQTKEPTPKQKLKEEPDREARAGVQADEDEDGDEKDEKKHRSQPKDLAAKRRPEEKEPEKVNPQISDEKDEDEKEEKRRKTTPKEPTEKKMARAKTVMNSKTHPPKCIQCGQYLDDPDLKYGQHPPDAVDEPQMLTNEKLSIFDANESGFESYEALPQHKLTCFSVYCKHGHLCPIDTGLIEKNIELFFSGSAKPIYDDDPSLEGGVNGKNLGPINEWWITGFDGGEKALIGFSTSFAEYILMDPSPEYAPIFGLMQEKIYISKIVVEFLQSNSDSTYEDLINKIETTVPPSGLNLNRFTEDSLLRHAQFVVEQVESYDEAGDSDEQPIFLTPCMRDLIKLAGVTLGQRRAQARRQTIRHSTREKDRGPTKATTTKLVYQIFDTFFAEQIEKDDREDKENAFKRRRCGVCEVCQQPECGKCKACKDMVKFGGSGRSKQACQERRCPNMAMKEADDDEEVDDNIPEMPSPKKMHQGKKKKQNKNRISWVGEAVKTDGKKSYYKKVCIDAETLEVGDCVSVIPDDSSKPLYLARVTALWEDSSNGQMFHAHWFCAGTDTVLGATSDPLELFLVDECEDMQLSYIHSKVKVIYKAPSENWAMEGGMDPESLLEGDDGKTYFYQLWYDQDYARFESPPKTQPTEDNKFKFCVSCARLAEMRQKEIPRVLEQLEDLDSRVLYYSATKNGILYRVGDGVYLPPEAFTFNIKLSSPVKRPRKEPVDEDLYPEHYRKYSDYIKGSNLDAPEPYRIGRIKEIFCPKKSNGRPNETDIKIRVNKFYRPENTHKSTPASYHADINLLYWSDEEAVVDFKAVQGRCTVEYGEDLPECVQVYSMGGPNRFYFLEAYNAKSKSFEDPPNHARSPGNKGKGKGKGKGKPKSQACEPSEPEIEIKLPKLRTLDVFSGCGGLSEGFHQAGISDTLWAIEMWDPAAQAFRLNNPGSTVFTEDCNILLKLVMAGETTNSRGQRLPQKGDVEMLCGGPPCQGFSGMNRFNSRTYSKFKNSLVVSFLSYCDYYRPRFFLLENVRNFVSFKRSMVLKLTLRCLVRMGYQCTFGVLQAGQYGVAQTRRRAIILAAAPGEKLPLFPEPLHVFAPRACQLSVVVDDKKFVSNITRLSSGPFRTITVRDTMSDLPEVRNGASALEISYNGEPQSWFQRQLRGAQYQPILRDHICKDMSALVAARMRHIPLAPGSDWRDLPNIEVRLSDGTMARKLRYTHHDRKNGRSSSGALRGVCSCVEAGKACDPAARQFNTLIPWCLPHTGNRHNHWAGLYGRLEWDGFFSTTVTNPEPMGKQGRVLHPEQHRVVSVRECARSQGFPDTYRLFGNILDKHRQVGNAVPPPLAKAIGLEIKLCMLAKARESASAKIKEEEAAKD
Description: Western blot of DNMT1 depletion in MCF-7/Adr cells. Format: cell-based. As for the experimental part:
as §1, with “protocol. […]” for “protocol.”

The test system of series [7] is MDA-MB 231 cells. In words: Physical characterization of exosomes from DAC treated cells. The note with it: exosomes from cells treated with DAC 0.5 μM, 24 h. Format: cell-based, human. How it is done: Exosome isolation protocol: MDA-MB 231 cells were grown in DMEM supplemented with 10% fetal bovine serum (FBS), and 1% antibiotics. Prior to use in cell culture; the cell culture medium was depleted of endogenous exosomes present in FBS. Exosomes depleted media were prepared by 16 h of ultracentrifugation of cell culture medium supplemented with 50% FBS at 100, 000×g and filtered through 0.2 μm filter. Through out this process sterile conditions were maintained.
To isolate the exosomes from cells treated with DAC, cells were cultured in 10 cell culture dishes (150×25 mm), When the cells were at 70% confluency, the cells were washed with 1×PBS, re-fed with endogenous exosomes depleted media containing DAC (0.5 μM) and incubated for 24 h. Because of small production of exosomes from cultured cells, culture media from all the DAC treated plates were pooled for exosome isolation. All the exosome isolation procedures were done at 4° C. Culture supernatants were first centrifuged at 300×g for 10 min to pellet the cells. To remove the dead cells, supernatant was centrifuged at 2,000×g for 15 min (Sorvall Legend RTcentrifuge, Thermo Electron Corp. Waltham, Mass.). Supernatant was pipetted off and transferred to pre-cooled polycarbonate tubes appropriate for 50.1Ti fixed angle ultracentrifugation rotor (Beckman Coulter Inc., Fullerton, Calif., USA) and centrifuged at 10,000×g for 30 min to remove cell debris. Pellet was discarded and supernatant was aliquoted to several ultracentrifuge tubes and centrifuged at 110,000×g for 70 min to pellet exosomes. Supernatant was discarded. The pellet in each tube was re-suspended in 1 mL PBS and pooled in to single ultracentrifuge tube and centrifuged at 110,000×g for 70 min. […]
Five micro-liter of PFA fixed exosome suspension was dropped on 200 mesh formvar—carbon coated EM grid (grid size: 97 μm) (TEDPELLA, Redding, Calif., USA) and exosomes were allowed to adsorb to the grids by drying the suspension at room temperature for 20-30 min. […] From TEM images sizes of exosomes were measured using Image J software.

A short description of series [8]: DAC stability in cell culture media. Type of series: physicochemical. The note with it: 50 μg/mL, DMEM with 15% FBS, 37° C.
Description: Samples were incubated as 2 mL aliquots at 37° C., collected at various time points and lyophilized. To extract DAC from lyophilized samples 3 mL of methanol was added and kept on orbital rotating shaker at 100 rpm in cold room overnight.
DAC was extracted from lyophilized samples by adding 3 mL of methanol and kept on an orbital rotating shaker at 100 rpm in cold room overnight.

In the case of `Nc1ncn([C@H]2C[C@H](O)[C@@H](CO)O2)c(=O)n1` [DAC, 5-aza-2′-deoxycytidine], the Half-life in series [1] (in humans) is 10 to 35 min. Further, the Clearance result in series [1] (in vivo) is “very high clearance”. Further, the “Uptake of dox in DAC pre-treated cells vs dox alone” value in series [2] is “higher increase in uptake of dox”. Also, the “In vivo half life” value in series [3] is 10 to 30 min. Moreover, the Plasma protein binding result in series [3] (in vivo) is recorded as “poor plasma protein binding”. Moreover, the “p21 protein expression (immunoblotting)” value in series [4] is on record as “significant increase”. In addition, the Carcinogenicity entry in series [5] is “has not”. The “Duration of DNMT1 depletion” value in series [6] (50 ng/mL) is on record as 24 h. Besides, the “DNMT1 levels vs untreated” value in series [6] (2, 3 and 5 days post treatment) is “No difference in DNMT1 levels”. For the same compound, in series [7], the “Hydrodynamic diameter of exosomes” value was found to be 495 nm and the PI of exosomes was determined as 0.61. For the same compound, in series [7] (in nm (unit assumed)), the “Exosome size by transmission electron micrograph” value amounted to 97.2±8.0. Moreover, the “No detectable levels of DAC at” value in series [8] stood at 8 h. Also, in series [8] (1 h), the “DAC degraded within an hour” value was found to be 60%.
